Where a name gives a salt, the structure may show the parent alone. Active and inactive are the calls of the source. The rule behind the calls is not given here.
Experiments:
Bacillus subtilis [1] = assay: Antibacterial activity against Bacillus subtilis at 1 mg/ml after 24 hr by […]; type: functional; settings: read-out: DIZ
Candida albicans = assay: Antifungal activity against Candida albicans at 0.1 to 1 mg/ml after 24 hr by […]; type: functional, organism-based
Aspergillus fumigatus [2] = assay: Antifungal activity against Aspergillus fumigatus at 0.1 mg/ml after 24 hr by […]; type: functional, organism-based
Aspergillus fumigatus [3] = assay: Antifungal activity against Aspergillus fumigatus at 0.2 mg/ml after 24 hr by […]; type: functional
Aspergillus fumigatus [4] = assay: Antifungal activity against Aspergillus fumigatus at 1 mg/ml after 24 hr by […]; type: functional; settings: for zone of inhibition at 1000 µg/mL: read-out: DIZ
Staphylococcus aureus [5] = assay: Antibacterial activity against Staphylococcus aureus at 0.1 mg/ml after 24 hr by […]; type: functional
Staphylococcus aureus [6] = assay: Antibacterial activity against Staphylococcus aureus at 0.2 mg/ml after 24 hr by […]; type: functional
Staphylococcus aureus [7] = assay: Antibacterial activity against Staphylococcus aureus at 1 mg/ml after 24 hr by […]; type: functional; settings: for zone of inhibition at 1000 µg/mL: read-out: DIZ
Bacillus subtilis [8] = assay: Antibacterial activity against Bacillus subtilis at 0.1 mg/ml after 24 hr by […]; type: functional; settings: for zone of inhibition at 100 µg/mL: read-out: DIZ
Bacillus subtilis [9] = assay: Antibacterial activity against Bacillus subtilis at 0.2 mg/ml after 24 hr by […]; type: functional; settings: read-out: DIZ

C[C@H]1COc2c(N3CCN(C)CC3)c(F)cc3c(=O)c(C(=O)O)cn1c23 [LEVOFLOXACIN HYDROCHLORIDE]
zone of inhibition at 1000 µg/mL (Bacillus subtilis [1]): 4.6 mm
diameter of the inhibition zone (DIZ) (Candida albicans): inactive
diameter of the inhibition zone (DIZ) (Aspergillus fumigatus [2]): inactive
diameter of the inhibition zone (DIZ) (Aspergillus fumigatus [3]): inactive
diameter of the inhibition zone (DIZ) (Aspergillus fumigatus [4]): inactive
zone of inhibition at 100 µg/mL (Staphylococcus aureus [5]; read-out: DIZ): 2.6 mm
zone of inhibition at 200 µg/mL (Staphylococcus aureus [6]; read-out: DIZ): 2.9 mm
zone of inhibition at 1000 µg/mL (Staphylococcus aureus [7]): 3.3 mm
zone of inhibition at 100 µg/mL (Bacillus subtilis [8]): 3.6 mm
zone of inhibition at 200 µg/mL (Bacillus subtilis [9]): 3.8 mm

CN1CCN(c2c(F)cc3c(=O)c(C(=O)O)cn(CC(=O)O)c3c2F)CC1
zone of inhibition at 1000 µg/mL (Bacillus subtilis [1]): 1.1 mm
diameter of the inhibition zone (DIZ) (Candida albicans): inactive
diameter of the inhibition zone (DIZ) (Aspergillus fumigatus [2]): inactive
zone of inhibition at 200 µg/mL (Aspergillus fumigatus [3]; read-out: DIZ): 0.6 mm
zone of inhibition at 1000 µg/mL (Aspergillus fumigatus [4]): 1 mm
diameter of the inhibition zone (DIZ) (Staphylococcus aureus [5]): inactive
diameter of the inhibition zone (DIZ) (Staphylococcus aureus [6]): inactive
zone of inhibition at 1000 µg/mL (Staphylococcus aureus [7]): 0.7 mm
zone of inhibition at 100 µg/mL (Bacillus subtilis [8]): 0.65 mm
zone of inhibition at 200 µg/mL (Bacillus subtilis [9]): 0.9 mm

CN1CCN(c2c(F)cc3c(=O)c(C(=O)O)cn(C(C(=O)O)c4ccccc4)c3c2F)CC1 (stereo not given)
zone of inhibition at 1000 µg/mL (Bacillus subtilis [1]): 1.05 mm
diameter of the inhibition zone (DIZ) (Candida albicans): inactive
diameter of the inhibition zone (DIZ) (Aspergillus fumigatus [2]): inactive
diameter of the inhibition zone (DIZ) (Aspergillus fumigatus [3]): inactive
zone of inhibition at 1000 µg/mL (Aspergillus fumigatus [4]): 0.6 mm
diameter of the inhibition zone (DIZ) (Staphylococcus aureus [5]): inactive
diameter of the inhibition zone (DIZ) (Staphylococcus aureus [6]): inactive
zone of inhibition at 1000 µg/mL (Staphylococcus aureus [7]): 0.6 mm
zone of inhibition at 100 µg/mL (Bacillus subtilis [8]): 0.6 mm
zone of inhibition at 200 µg/mL (Bacillus subtilis [9]): 0.9 mm

CN1CCN(c2c(F)cc3c(=O)c(C(=O)O)cn(C(Cc4ccccc4)C(=O)O)c3c2F)CC1 (stereo not given)
zone of inhibition at 1000 µg/mL (Bacillus subtilis [1]): 1.2 mm
diameter of the inhibition zone (DIZ) (Candida albicans): inactive
diameter of the inhibition zone (DIZ) (Aspergillus fumigatus [2]): inactive
diameter of the inhibition zone (DIZ) (Aspergillus fumigatus [3]): inactive
zone of inhibition at 1000 µg/mL (Aspergillus fumigatus [4]): 0.75 mm
diameter of the inhibition zone (DIZ) (Staphylococcus aureus [5]): inactive
diameter of the inhibition zone (DIZ) (Staphylococcus aureus [6]): inactive
zone of inhibition at 1000 µg/mL (Staphylococcus aureus [7]): 0.8 mm
diameter of the inhibition zone (DIZ) (Bacillus subtilis [8]): inactive
zone of inhibition at 200 µg/mL (Bacillus subtilis [9]): 0.95 mm

CC(C)CC(C(=O)O)n1cc(C(=O)O)c(=O)c2cc(F)c(N3CCN(C)CC3)c(F)c21 (stereo not given)
zone of inhibition at 1000 µg/mL (Bacillus subtilis [1]): 1.15 mm
diameter of the inhibition zone (DIZ) (Candida albicans): inactive
diameter of the inhibition zone (DIZ) (Aspergillus fumigatus [2]): inactive
diameter of the inhibition zone (DIZ) (Aspergillus fumigatus [3]): inactive
diameter of the inhibition zone (DIZ) (Aspergillus fumigatus [4]): inactive
diameter of the inhibition zone (DIZ) (Staphylococcus aureus [5]): inactive
diameter of the inhibition zone (DIZ) (Staphylococcus aureus [6]): inactive
zone of inhibition at 1000 µg/mL (Staphylococcus aureus [7]): 0.6 mm
diameter of the inhibition zone (DIZ) (Bacillus subtilis [8]): inactive
zone of inhibition at 200 µg/mL (Bacillus subtilis [9]): 0.95 mm

CCC(C)C(C(=O)O)n1cc(C(=O)O)c(=O)c2cc(F)c(N3CCN(C)CC3)c(F)c21 (stereo not given)
zone of inhibition at 1000 µg/mL (Bacillus subtilis [1]): 1.2 mm
diameter of the inhibition zone (DIZ) (Candida albicans): inactive
diameter of the inhibition zone (DIZ) (Aspergillus fumigatus [2]): inactive
diameter of the inhibition zone (DIZ) (Aspergillus fumigatus [3]): inactive
diameter of the inhibition zone (DIZ) (Aspergillus fumigatus [4]): inactive
diameter of the inhibition zone (DIZ) (Staphylococcus aureus [5]): inactive
diameter of the inhibition zone (DIZ) (Staphylococcus aureus [6]): inactive
zone of inhibition at 1000 µg/mL (Staphylococcus aureus [7]): 0.6 mm
zone of inhibition at 100 µg/mL (Bacillus subtilis [8]): 0.6 mm
zone of inhibition at 200 µg/mL (Bacillus subtilis [9]): 1.15 mm

CC(C)C(C(=O)O)n1cc(C(=O)O)c(=O)c2cc(F)c(N3CCN(C)CC3)c(F)c21 (stereo not given)
zone of inhibition at 1000 µg/mL (Bacillus subtilis [1]): 1 mm
diameter of the inhibition zone (DIZ) (Candida albicans): inactive
diameter of the inhibition zone (DIZ) (Aspergillus fumigatus [2]): inactive
diameter of the inhibition zone (DIZ) (Aspergillus fumigatus [3]): inactive
diameter of the inhibition zone (DIZ) (Aspergillus fumigatus [4]): inactive
diameter of the inhibition zone (DIZ) (Staphylococcus aureus [5]): inactive
diameter of the inhibition zone (DIZ) (Staphylococcus aureus [6]): inactive
diameter of the inhibition zone (DIZ) (Staphylococcus aureus [7]): inactive
diameter of the inhibition zone (DIZ) (Bacillus subtilis [8]): inactive
zone of inhibition at 200 µg/mL (Bacillus subtilis [9]): 0.7 mm

Source: ChEMBL document CHEMBL3046283, “The simple synthesis and antimicrobial activity of novel fluoroquinolone derivatives from natural amino acid salts” (2012)
